Assay results from patent US10273239B2, “Spiro-lactam NMDA receptor modulators and uses thereof” (Aptinyx Inc., priority 2013, dated 2019).

Columns and labels:
[1] = target: T1, NMDA receptor (rat cortical membranes) (Rattus norvegicus, UniProt P35439); test: [3H] MK-801 binding assay (potentiation of [3H]MK-801 binding)
T1 construct: well washed rat cortical membranes (200 μg); from tissue; host or cells: rat cerebral cortex membranes
Experimental: Assays were conducted as described in Moskal et al. (Moskal, J. R., Kuo, A. G., Weiss, C., Wood, P. L., O'Connor Hanson, A., Kelso, S., Harris, R. B., Disterhoft, J. F., 2005. GLYX-13: a monoclonal antibody-derived peptide that acts as an N-methyl-D-aspartate receptor modulator. Neuropharmacology. 49, 1077-87) The potentiation of [^3H]MK-801 binding (5 nM; 22.5 Ci/mmol) to well washed rat cortical membranes (200 μg) was measured under non-equilibrium conditions (15 min @ 25° C.) in the presence of increasing concentrations of test compounds and 50 μM glutamate. Zero levels were determined in the absence of any glycine ligand and in the presence of 30 μM 5,7 DCKA. Maximal stimulation was measured in the presence of 1 mM glycine, and 50 μM glutamate was present in all samples. The facilitation of [^3H]MK-801 binding by tests compounds was calculated by using a 3 parameter log agonist vs. response equation (Graph pad Prism, USA) and potency (EC50, expressed in pM) and maximal activity (% maximal stimulation) were calculated for the test compound.

LTP = test: Unified Activity Data: LTP; details: LTP Concentration 1 uM
[2] = Unified Activity Data: Porsolt; type: in vivo; details: 3 mg/kg, IV, 1 hour post dose

SMILES	EC50 [1]	Unified Activity Data: LTP Augmentation (Percent) (LTP)	Unified Activity Data: Porsolt Floating Time Inhibition (Percent) [2]
C[C@@H](O)[C@H](NC(=O)OC(C)(C)C)C(=O)N1CCCC12CNC2=O (stereo in doubt) [Compound 4S-FNL-2, tert-butyl (3-hydroxy-1-oxo-1-(1-oxo-2,5-diazaspiro [3.4]octan-5-yl)butan-2-yl)carbamate]	0.0553 nM	–	–
C[C@@H](O)[C@H](N)C(=O)N1CCCC12CNC2=O (stereo partly drawn) [Compound 4S-FNL-1, 5-((2S,3R)-2-amino-3-hydroxybutanoyl)-2,5-diazaspiro [3.4] octan-1-one]	–	80%	70%
